# Measured values from publication PMC8147293, “Library of Selenocyanate and Diselenide Derivatives as In Vivo Antichagasic Compounds Targeting Trypanosoma cruzi Mitochondrion” (Pharmaceuticals, 2021).
# Where two headings read alike, the source gives them in different places.
# Key:
# [1] = test system: Mammalian Vero cells; experiment: Cytotoxicity test on Vero cells (resazurin); format: cell-based; conditions: Chlorocebus sabaeus; for IC50: Table S1, cultured Vero cells, read-out: Toxicity IC50 Vero cell; for CC50: 72 h, Table 1, Vero cells, 48 h + 24 h resazurin, read-out: Toxicity IC50 Vero Cell
# Description: Mammalian Vero cells (EACC No. 84113001), cultured as previously reported, were used to determine the cytotoxicity of the tested compounds [56]. In short, 1.25 × 10^4 Vero cells·mL^−1 were treated by adding the compounds at a concentration range from 400 to 1 µM in 96-well microplates (200 µL·well^−1) at 37 °C for 48 h. Subsequently, resazurin sodium salt (Sigma-Aldrich) was added to be incubated for further 24 h. Finally, cell viability was determined following the same procedure as described to assess the trypanocidal activity in the epimastigotes. Each compound concentration was tested in triplicate in three independent experiments.
# [2] = test system: epimastigotes of T. cruzi Arequipa strain; experiment: Screening against extracellular epimastigotes (resazurin); format: cell-based, Trypanosoma cruzi; conditions: for IC50: Trypanosoma cruzi; for Selectivity Index Epimast.: IC50 Vero cells/IC50 epimastigotes
# Description: Trypanocidal activity against epimastigotes of T. cruzi Arequipa strain (MHOM/Pe/2011/Arequipa, discrete typing unit V) was tested as previously described. In short, 5 × 10^5 epimastigotes·mL^−1 were treated by adding the tested compounds at a concentration range from 100 to 0.2 µM in 96-well microplates (200 µL·well^−1) for 48 h. Subsequently, resazurin sodium salt (Sigma-Aldrich) was added to be incubated for further 24 h. Finally, the absorbance was measured, and the trypanocidal activity was expressed as the IC50 (inhibitory concentration 50) using GraphPad Prism 6 software. Each compound concentration was tested in triplicate in three independent experiments.
# [3] = test system: Trypanosoma cruzi bloodstream trypomastigotes (BTs); experiment: Screening against bloodstream trypomastigotes (resazurin); format: cell-based; conditions: for Selectivity Index Trypomast.: IC50 Vero cells/IC50 trypomastigotes; for IC50: Trypanosoma cruzi, Table 1, bloodstream trypomastigotes, 24 h treatment + 4 h resazurin, read-out: Activity IC50 Trypomast.
# Description: 2 × 10^6 Bloodstream trypomastigotes (BTs), obtained by cardiac puncture from infected BALB/c mice as previously described, were treated by adding the tested compounds at a concentration range from 50 to 0.1 µM in 96-well microplates (200 µL·well^−1) at 37 °C. After 24 h of treatment, resazurin sodium salt (Sigma-Aldrich) was added to be incubated for further 4 h. Finally, trypanocidal activity was determined following the same procedure as described to assess the trypanocidal activity in the epimastigotes. Each compound concentration was tested in triplicate in three independent experiments.
# [4] = test system: Trypanosoma cruzi intracellular amastigotes; experiment: Screening against intracellular amastigotes in Vero cells (Giemsa counting); format: cell-based; conditions: for Selectivity Index Amast.: IC50 Vero cells/IC50 amastigotes; for IC50: Trypanosoma cruzi, Table 1, intracellular amastigotes in Vero cells, 72 h, read-out: Activity IC50 Amast.
# Description: Trypanocidal activity against amastigotes was determined according to the literature reported previously. […]. […] Each compound concentration was tested in triplicate in four separate determinations.
# [5] = Table S1, cultured epimastigote form of T. cruzi, read-out: Activity IC50
# [6] = Table 1, T. cruzi epimastigotes, 48 h treatment + 24 h resazurin, read-out: Activity IC50 Epimast.
Structure (SMILES),IC50 [1] [µM],"IC50 [2, 5] [µM]",other results
N#C[Se]Cc1ccc(Br)cc1 [compound 1],68.4 ± 3.7,39.1 ± 2.5,–
Brc1ccc(C[Se][Se]Cc2ccc(Br)cc2)cc1 [compound 2],30.7 ± 2.1,39.3 ± 4.1,–
N#C[Se]Cc1ccccc1 [compound 3],53.3 ± 2.5,–,–
c1ccc(C[Se][Se]Cc2ccccc2)cc1 [compound 4],26.8 ± 1.3,35.4 ± 3.6,–
N#C[Se]Cc1ccc([N+](=O)[O-])cc1 [compound 5],28.6 ± 2.4,21.8 ± 2.2,–
O=[N+]([O-])c1ccc(C[Se][Se]Cc2ccc([N+](=O)[O-])cc2)cc1 [compound 6],28.2 ± 1.1,13.6 ± 0.7,–
N#C[Se]Cc1ccc(C(F)(F)F)cc1 [compound 7],50.5 ± 3.8,34.1 ± 2.6,–
CSc1ccc(C[Se]C#N)cc1 [compound 9],67.3 ± 4.9,11.3 ± 0.7,–
Cc1ccc(C[Se]C#N)cc1 [compound 11],–,≤ 10,"Selectivity Index Trypomast. [3]: 14; IC50 [3]: 4.5 ± 0.6 µM; CC50 [1]: 61.3 ± 3.7 µM; Selectivity Index Amast. [4]: 20; IC50 [4]: 3.1 ± 0.1 µM; Selectivity Index Epimast. [2]: 20; IC50 [2, 6]: 3 ± 0.4 µM"
Cc1ccc(C[Se][Se]Cc2ccc(C)cc2)cc1 [compound 12],4.9 ± 0.7,19.4 ± 1.5,–
N#C[Se]Cc1ccc(C#N)cc1 [compound 13],12.8 ± 0.7,1.9 ± 0.7,–
N#Cc1ccc(C[Se][Se]Cc2ccc(C#N)cc2)cc1 [compound 14],8.9 ± 1.5,27.9 ± 2.9,–
O=[N+]([O-])c1ccccc1C[Se][Se]Cc1ccccc1[N+](=O)[O-] [compound 16],18.9 ± 2.4,18.4 ± 2.3,–
N#C[Se]Cc1cccc([N+](=O)[O-])c1 [compound 17],81.2 ± 4.8,37.4 ± 2.6,–
O=[N+]([O-])c1cccc(C[Se][Se]Cc2cccc([N+](=O)[O-])c2)c1 [compound 18],7.3 ± 1.1,1.5 ± 0.3,–
N#C[Se]Cc1ccccc1C#N [compound 19],18.5 ± 0.7,29.1 ± 3,–
N#Cc1ccccc1C[Se][Se]Cc1ccccc1C#N [compound 20],–,≤ 10,"Selectivity Index Trypomast. [3]: 18; IC50 ([3]; 28 h): 0.9 µM; CC50 [1]: 16.4 ± 0.5 µM; Selectivity Index Amast. [4]: 16; IC50 [4]: 1 ± 0.1 µM; Selectivity Index Epimast. [2]: 13; IC50 ([2]; 72 h, Table 1, T. cruzi epimastigotes, 48 h treatment + 24 h resazurin, read-out: Activity IC50 Epimast.): 1.3 ± 0.2 µM"
N#C[Se]Cc1cccc(C#N)c1 [compound 21],–,≤ 10,"Selectivity Index Trypomast. [3]: 24; IC50 [3]: 0.9 ± 0.1 µM; CC50 [1]: 21.7 ± 1.8 µM; Selectivity Index Amast. [4]: 27; IC50 [4]: 0.8 ± 0.1 µM; Selectivity Index Epimast. [2]: 22; IC50 [2, 6]: 1 ± 0.2 µM"
N#Cc1cccc(C[Se][Se]Cc2cccc(C#N)c2)c1 [compound 22],29.8 ± 3,39.7 ± 2.6,–
N#C[Se]Cc1cc2c(cc1Br)OCO2 [compound 23],38.9 ± 2.1,14.1 ± 0.9,–
Brc1cc2c(cc1C[Se][Se]Cc1cc3c(cc1Br)OCO3)OCO2 [compound 24],61.8 ± 4.1,45.7 ± 2.6,–

Structure (SMILES),IC50 [1] [µM],"IC50 [2, 5] [µM]",other results
N#C[Se]Cc1cccc2cccnc12 [compound 25],12.6 ± 0.3,10.3 ± 0.8,–
c1cnc2c(C[Se][Se]Cc3cccc4cccnc34)cccc2c1 [compound 26],19.6 ± 1,6.7 ± 0.4,–
N#C[Se]Cc1ccc2ccccc2n1 [compound 27],68.3 ± 6.7,99.5 ± 6.1,–
N#C[Se]Cc1c2ccccc2cc2ccccc12 [compound 28],169 ± 9.7,21.4 ± 0.9,–
N#C[Se]Cc1nc2ccccc2nc1C[Se]C#N [compound 29],67.4 ± 3.5,32.1 ± 1.1,–
COc1cc2oc(=O)cc(C[Se]C#N)c2cc1OC [compound 30],109 ± 10.5,30.9 ± 1.4,–
N#C[Se]CC(=O)C12CC3CC(CC(C3)C1)C2 [compound 31],85.5 ± 4.9,13.2 ± 0.8,–
O=S(=O)(Nc1ccc([Se][Se]c2ccc(NS(=O)(=O)c3ccc(Br)cc3)cc2)cc1)c1ccc(Br)cc1 [compound 33],49.7 ± 3.2,10.2 ± 0.8,–
O=S(=O)(Nc1ccc([Se][Se]c2ccc(NS(=O)(=O)c3ccc(Cl)cc3)cc2)cc1)c1ccc(Cl)cc1 [compound 34],29.8 ± 3.4,41.3 ± 2.1,–
O=S(=O)(Nc1ccc([Se][Se]c2ccc(NS(=O)(=O)c3ccccc3Cl)cc2)cc1)c1ccccc1Cl [compound 35],69 ± 5.3,28.4 ± 1.7,–
O=S(=O)(Nc1ccc([Se][Se]c2ccc(NS(=O)(=O)c3ccc(F)cc3)cc2)cc1)c1ccc(F)cc1 [compound 36],70.8 ± 4.8,11.1 ± 0.8,–
O=S(=O)(Nc1ccc([Se][Se]c2ccc(NS(=O)(=O)c3ccccc3F)cc2)cc1)c1ccccc1F [compound 37],39.6 ± 3.1,46.1 ± 3.1,–
COc1ccc(S(=O)(=O)Nc2ccc([Se][Se]c3ccc(NS(=O)(=O)c4ccc(OC)cc4)cc3)cc2)cc1 [compound 38],40.3 ± 2.5,27.8 ± 1.6,–
O=[N+]([O-])c1ccc(S(=O)(=O)Nc2ccc([Se][Se]c3ccc(NS(=O)(=O)c4ccc([N+](=O)[O-])cc4)cc3)cc2)cc1 [compound 39],11.7 ± 2.7,17.1 ± 1.3,–
N#Cc1ccc(S(=O)(=O)Nc2ccc([Se][Se]c3ccc(NS(=O)(=O)c4ccc(C#N)cc4)cc3)cc2)cc1 [compound 40],16 ± 1.7,3.8 ± 0.1,–
O=S(=O)(Nc1ccc([Se][Se]c2ccc(NS(=O)(=O)c3ccccc3)cc2)cc1)c1ccccc1 [compound 41],26.5 ± 1.4,6.8 ± 0.7,–
O=S(=O)(Nc1ccc([Se][Se]c2ccc(NS(=O)(=O)c3ccc(C(F)(F)F)cc3)cc2)cc1)c1ccc(C(F)(F)F)cc1 [compound 42],36 ± 2.3,5.9 ± 0.4,–
Cc1ccc(S(=O)(=O)Nc2ccc([Se][Se]c3ccc(NS(=O)(=O)c4ccc(C)cc4)cc3)cc2)cc1 [compound 43],–,≤ 10,"Selectivity Index Trypomast. [3]: 18; IC50 [3]: 3.7 ± 0.2 µM; CC50 [1]: 66.9 ± 6.2 µM; Selectivity Index Amast. [4]: 16; IC50 [4]: 4.2 ± 0.7 µM; Selectivity Index Epimast. [2]: 13; IC50 [2, 6]: 5.1 ± 0.6 µM"
O=S(=O)(Nc1ccc([Se][Se]c2ccc(NS(=O)(=O)c3ccc4ccccc4c3)cc2)cc1)c1ccc2ccccc2c1 [compound 44],30.8 ± 2.2,5.6 ± 1.1,–
O=S(=O)(Nc1ccc([Se][Se]c2ccc(NS(=O)(=O)c3cccc4cccnc34)cc2)cc1)c1cccc2cccnc12 [compound 45],14.3 ± 1.1,1.7 ± 0.3,–
O=S(=O)(Nc1ccc([Se][Se]c2ccc(NS(=O)(=O)c3cccs3)cc2)cc1)c1cccs1 [compound 48],15.7 ± 1.1,1.8,–
